Tests used:
redroot pigweed = test: Test Example 5: herbicidal effect by foliage application, plastic box (Table 20, symbol N); format: in vivo, redroot pigweed (Amaranthus retroflexus); details: foliage application after 14-day growth, evaluated three weeks after application; for Herbicidal effect by foliage application, N: redroot pigweed: amount of applied herbicide 320 g/ha
In short: (§1)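 Plants sown in sterilized diluvial soil and grown 14 days in a greenhouse at 25° C to 30° C, then sprayed on the foliage with the compound's emulsion diluted in water to a predetermined herbicide amount. Injury to weeds and crops scored three weeks after application on a visual rating scale.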

Japanese bulrush = test: Test Example 1: herbicidal activity, application before weed generation under submerged conditions (Table 16, symbol B); format: in vivo, Japanese bulrush (Schoenoplectus juncoides); details: amount of applied herbicide 320 g/ha
In short: (§2)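 Submerged Wagner pots (alluvial soil, 4 cm water) sown with weed seeds and planted with 2.5-leaf rice seedlings; emulsifiable concentrate diluted in water applied to water surface on sowing day. Held in greenhouse at 25-30 °C; injury scored 0-5 by herbicidal rate after three weeks.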

blackgrass = test: Test Example 5: herbicidal effect by foliage application, plastic box (Table 20, symbol J); format: in vivo, blackgrass (Alopecurus myosuroides); details: foliage application after 14-day growth, evaluated three weeks after application; for Herbicidal effect by foliage application, J: blackgrass: amount of applied herbicide 320 g/ha
In short: as §1

velvetleaf = test: Test Example 5: herbicidal effect by foliage application, plastic box (Table 20, symbol M); format: in vivo, velvetleaf (Abutilon theophrasti); details: foliage application after 14-day growth, evaluated three weeks after application; for Herbicidal effect by foliage application, M: velvetleaf: amount of applied herbicide 320 g/ha
In short: as §1

barnyard grass [1] = test: Test Example 5: herbicidal effect by foliage application, plastic box (Table 20, symbol H); format: in vivo, barnyard grass (Echinochloa crus-galli); details: foliage application after 14-day growth, evaluated three weeks after application; for Herbicidal effect by foliage application, H: barnyard grass: amount of applied herbicide 320 g/ha
In short: as §1

green foxtail = test: Test Example 5: herbicidal effect by foliage application, plastic box (Table 20, symbol G); format: in vivo, green foxtail (Setaria viridis); details: foliage application after 14-day growth, evaluated three weeks after application; for Herbicidal effect by foliage application, G: green foxtail: amount of applied herbicide 320 g/ha
In short: as §1

barnyard grass [2] = test: Test Example 3: herbicidal effect by foliage application, Wagner pot (Table 18, symbol H); format: in vivo, barnyard grass (Echinochloa crus-galli); details: 320 g/ha
In short: (§3)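 Plants were sown in alluvial soil held under 0.1–0.5 cm standing water and grown 14 days in a greenhouse at 25–30 °C. An emulsifiable formulation, water-diluted to the set dose, was then sprayed onto the foliage, and effects were scored three weeks later using previously defined criteria.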

lambsquarters = test: Test Example 5: herbicidal effect by foliage application, plastic box (Table 20, symbol O); format: in vivo, lambsquarters (Chenopodium album); details: foliage application after 14-day growth, evaluated three weeks after application; for Herbicidal effect by foliage application, O: lambsquarters: amount of applied herbicide 320 g/ha
In short: as §1

rice flat sedge = test: Test Example 3: herbicidal effect by foliage application, Wagner pot (Table 18, symbol E); format: in vivo, rice flat sedge (Cyperus iria); details: 320 g/ha
In short: as §3

Italian ryegrass = test: Test Example 5: herbicidal effect by foliage application, plastic box (Table 20, symbol K); format: in vivo, Italian ryegrass (Lolium multiflorum); details: foliage application after 14-day growth, evaluated three weeks after application; for Herbicidal effect by foliage application, K: Italian ryegrass: amount of applied herbicide 320 g/ha
In short: as §1

late watergrass = test: Test Example 1: herbicidal activity, application before weed generation under submerged conditions (Table 16, symbol A); format: in vivo, late watergrass (Echinochloa oryzicola); details: amount of applied herbicide 320 g/ha
In short: as §2

windgrass = test: Test Example 5: herbicidal effect by foliage application, plastic box (Table 20, symbol L); format: in vivo, windgrass (Apera spica-venti); details: foliage application after 14-day growth, evaluated three weeks after application; for Herbicidal effect by foliage application, L: windgrass: amount of applied herbicide 320 g/ha
In short: as §1

persian speedwell = test: Test Example 5: herbicidal effect by foliage application, plastic box (Table 20, symbol R); format: in vivo, Persian speedwell (Veronica persica); details: foliage application after 14-day growth, evaluated three weeks after application; for Herbicidal effect by foliage application, R: persian speedwell: amount of applied herbicide 320 g/ha
In short: as §1

chickweed = test: Test Example 5: herbicidal effect by foliage application, plastic box (Table 20, symbol P); format: in vivo, common chickweed (Stellaria media); details: foliage application after 14-day growth, evaluated three weeks after application; for Herbicidal effect by foliage application, P: chickweed: amount of applied herbicide 320 g/ha
In short: as §1

Chinese sprangletop = test: Test Example 3: herbicidal effect by foliage application, Wagner pot (Table 18, symbol D); format: in vivo, chinese sprangletop (Leptochloa chinensis); details: 320 g/ha
In short: as §3

southern crabgrass = test: Test Example 5: herbicidal effect by foliage application, plastic box (Table 20, symbol F); format: in vivo, southern crabgrass (Digitaria ciliaris); details: foliage application after 14-day growth, evaluated three weeks after application; for Herbicidal effect by foliage application, F: southern crabgrass: amount of applied herbicide 320 g/ha
In short: as §1

oval-leafed pondweed = test: Test Example 1: herbicidal activity, application before weed generation under submerged conditions (Table 16, symbol C); format: in vivo, oval-leafed pondweed (Monochoria vaginalis); details: amount of applied herbicide 320 g/ha
In short: as §2

wild oat = test: Test Example 5: herbicidal effect by foliage application, plastic box (Table 20, symbol I); format: in vivo, wild oat (Avena fatua); details: foliage application after 14-day growth, evaluated three weeks after application; for Herbicidal effect by foliage application, I: wild oat: amount of applied herbicide 320 g/ha
In short: as §1

## CCCC(=O)Oc1c(C)nn(C)c(=O)c1-c1c(-c2cccc(OC)c2)sc2c(Cl)cccc12 [4-065]
Redroot pigweed; 320 g/ha
  herbicidal effect on N: redroot pigweed (evaluation grade 0-5): 5 (Herbicidal rate of 90% or more (almost completely withered))
Japanese bulrush
  Herbicidal effect, B: Japanese bulrush: 0 (Herbicidal rate of 5% or less (almost no effect))
blackgrass; 320 g/ha
  herbicidal effect on J: blackgrass (evaluation grade 0-5): 0 (Herbicidal rate of 5% or less (almost no effect))
velvetleaf; 320 g/ha
  herbicidal effect on M: velvetleaf (evaluation grade 0-5): 1 (Herbicidal rate of 5% or more and less than 20%)
Barnyard grass [1]; 320 g/ha
  herbicidal effect on H: barnyard grass (evaluation grade 0-5): 0 (Herbicidal rate of 5% or less (almost no effect))
Green foxtail; 320 g/ha
  herbicidal effect on G: green foxtail (evaluation grade 0-5): 0 (Herbicidal rate of 5% or less (almost no effect))
Barnyard grass [2]
  herbicidal effect on barnyard grass (H): 4 (Herbicidal rate of 70% or more and less than 90%)
lambsquarters; 320 g/ha
  herbicidal effect on O: lambsquarters (evaluation grade 0-5): 2 (Herbicidal rate of 20% or more and less than 40%)
Rice flat sedge
  herbicidal effect on rice flat sedge (E): 3 (Herbicidal rate of 40% or more and less than 70%)
Italian ryegrass; 320 g/ha
  herbicidal effect on K: Italian ryegrass (evaluation grade 0-5): 0 (Herbicidal rate of 5% or less (almost no effect))
Late watergrass
  Herbicidal effect, A: late watergrass: 4 (Herbicidal rate of 70% or more and less than 90%)
windgrass; 320 g/ha
  herbicidal effect on L: windgrass (evaluation grade 0-5): 0 (Herbicidal rate of 5% or less (almost no effect))
Persian speedwell; 320 g/ha
  herbicidal effect on R: persian speedwell (evaluation grade 0-5): 3 (Herbicidal rate of 40% or more and less than 70%)
chickweed; 320 g/ha
  herbicidal effect on P: chickweed (evaluation grade 0-5): 3 (Herbicidal rate of 40% or more and less than 70%)
Chinese sprangletop
  herbicidal effect on Chinese sprangletop (D): 3 (Herbicidal rate of 40% or more and less than 70%)
Southern crabgrass; 320 g/ha
  herbicidal effect on F: southern crabgrass (evaluation grade 0-5): 0 (Herbicidal rate of 5% or less (almost no effect))
oval-leafed pondweed
  Herbicidal effect, C: oval-leafed pondweed: 1 (Herbicidal rate of 5% or more and less than 20%)
Wild oat; 320 g/ha
  herbicidal effect on I: wild oat (evaluation grade 0-5): 0 (Herbicidal rate of 5% or less (almost no effect))

## Cc1nn(C)c(=O)c(-c2c(-c3ccccc3C(F)(F)F)sc3c(Cl)cccc23)c1O [4-070]
Redroot pigweed
  Herbicidal effect by foliage application, N: redroot pigweed: 3 (Herbicidal rate of 40% or more and less than 70%)
Japanese bulrush
  Herbicidal effect, B: Japanese bulrush: 2 (Herbicidal rate of 20% or more and less than 40%)
blackgrass
  Herbicidal effect by foliage application, J: blackgrass: 0 (Herbicidal rate of 5% or less (almost no effect))
velvetleaf
  Herbicidal effect by foliage application, M: velvetleaf: 0 (Herbicidal rate of 5% or less (almost no effect))
Barnyard grass [1]
  Herbicidal effect by foliage application, H: barnyard grass: 0 (Herbicidal rate of 5% or less (almost no effect))
Green foxtail
  Herbicidal effect by foliage application, G: green foxtail: 0 (Herbicidal rate of 5% or less (almost no effect))
Barnyard grass [2]
  herbicidal effect on barnyard grass (H): 5 (Herbicidal rate of 90% or more (almost completely withered))
lambsquarters
  Herbicidal effect by foliage application, O: lambsquarters: 3 (Herbicidal rate of 40% or more and less than 70%)
Rice flat sedge
  herbicidal effect on rice flat sedge (E): 4 (Herbicidal rate of 70% or more and less than 90%)
Italian ryegrass
  Herbicidal effect by foliage application, K: Italian ryegrass: 3 (Herbicidal rate of 40% or more and less than 70%)
Late watergrass
  Herbicidal effect, A: late watergrass: 3 (Herbicidal rate of 40% or more and less than 70%)
windgrass
  Herbicidal effect by foliage application, L: windgrass: 0 (Herbicidal rate of 5% or less (almost no effect))
Persian speedwell
  Herbicidal effect by foliage application, R: persian speedwell: 5 (Herbicidal rate of 90% or more (almost completely withered))
chickweed
  Herbicidal effect by foliage application, P: chickweed: 5 (Herbicidal rate of 90% or more (almost completely withered))
Chinese sprangletop
  herbicidal effect on Chinese sprangletop (D): 4 (Herbicidal rate of 70% or more and less than 90%)
Southern crabgrass
  Herbicidal effect by foliage application, F: southern crabgrass: 0 (Herbicidal rate of 5% or less (almost no effect))
oval-leafed pondweed
  Herbicidal effect, C: oval-leafed pondweed: 1 (Herbicidal rate of 5% or more and less than 20%)
Wild oat
  Herbicidal effect by foliage application, I: wild oat: 0 (Herbicidal rate of 5% or less (almost no effect))

## COc1ccccc1-c1sc2cc(Cl)c(Cl)cc2c1-c1c(O)c(C)nn(C)c1=O [5-041]
Redroot pigweed
  Herbicidal effect by foliage application, N: redroot pigweed: 5 (Herbicidal rate of 90% or more (almost completely withered))
Japanese bulrush
  Herbicidal effect, B: Japanese bulrush: 5 (Herbicidal rate of 90% or more (almost completely withered))
blackgrass
  Herbicidal effect by foliage application, J: blackgrass: 0 (Herbicidal rate of 5% or less (almost no effect))
velvetleaf
  Herbicidal effect by foliage application, M: velvetleaf: 4 (Herbicidal rate of 70% or more and less than 90%)
Barnyard grass [1]
  Herbicidal effect by foliage application, H: barnyard grass: 3 (Herbicidal rate of 40% or more and less than 70%)
Green foxtail
  Herbicidal effect by foliage application, G: green foxtail: 4 (Herbicidal rate of 70% or more and less than 90%)
Barnyard grass [2]
  herbicidal effect on barnyard grass (H): 4 (Herbicidal rate of 70% or more and less than 90%)
lambsquarters
  Herbicidal effect by foliage application, O: lambsquarters: 3 (Herbicidal rate of 40% or more and less than 70%)
Rice flat sedge
  herbicidal effect on rice flat sedge (E): 3 (Herbicidal rate of 40% or more and less than 70%)
Italian ryegrass
  Herbicidal effect by foliage application, K: Italian ryegrass: 0 (Herbicidal rate of 5% or less (almost no effect))
Late watergrass
  Herbicidal effect, A: late watergrass: 0 (Herbicidal rate of 5% or less (almost no effect))
windgrass
  Herbicidal effect by foliage application, L: windgrass: 0 (Herbicidal rate of 5% or less (almost no effect))
Persian speedwell
  Herbicidal effect by foliage application, R: persian speedwell: 3 (Herbicidal rate of 40% or more and less than 70%)
chickweed
  Herbicidal effect by foliage application, P: chickweed: 5 (Herbicidal rate of 90% or more (almost completely withered))
Chinese sprangletop
  herbicidal effect on Chinese sprangletop (D): 3 (Herbicidal rate of 40% or more and less than 70%)
Southern crabgrass
  Herbicidal effect by foliage application, F: southern crabgrass: 3 (Herbicidal rate of 40% or more and less than 70%)
oval-leafed pondweed
  Herbicidal effect, C: oval-leafed pondweed: 5 (Herbicidal rate of 90% or more (almost completely withered))
Wild oat
  Herbicidal effect by foliage application, I: wild oat: 0 (Herbicidal rate of 5% or less (almost no effect))

## CCOc1ccccc1-c1sc2cc(Cl)c(Cl)cc2c1-c1c(O)c(C)nn(C)c1=O [5-045]
Redroot pigweed
  Herbicidal effect by foliage application, N: redroot pigweed: 3 (Herbicidal rate of 40% or more and less than 70%)
Japanese bulrush
  Herbicidal effect, B: Japanese bulrush: 3 (Herbicidal rate of 40% or more and less than 70%)
blackgrass
  Herbicidal effect by foliage application, J: blackgrass: 0 (Herbicidal rate of 5% or less (almost no effect))
velvetleaf
  Herbicidal effect by foliage application, M: velvetleaf: 4 (Herbicidal rate of 70% or more and less than 90%)
Barnyard grass [1]
  Herbicidal effect by foliage application, H: barnyard grass: 3 (Herbicidal rate of 40% or more and less than 70%)
Green foxtail
  Herbicidal effect by foliage application, G: green foxtail: 3 (Herbicidal rate of 40% or more and less than 70%)
Barnyard grass [2]
  herbicidal effect on barnyard grass (H): 4 (Herbicidal rate of 70% or more and less than 90%)
lambsquarters
  Herbicidal effect by foliage application, O: lambsquarters: 1 (Herbicidal rate of 5% or more and less than 20%)
Rice flat sedge
  herbicidal effect on rice flat sedge (E): 3 (Herbicidal rate of 40% or more and less than 70%)
Italian ryegrass
  Herbicidal effect by foliage application, K: Italian ryegrass: 0 (Herbicidal rate of 5% or less (almost no effect))
Late watergrass
  Herbicidal effect, A: late watergrass: 0 (Herbicidal rate of 5% or less (almost no effect))
windgrass
  Herbicidal effect by foliage application, L: windgrass: 0 (Herbicidal rate of 5% or less (almost no effect))
Persian speedwell
  Herbicidal effect by foliage application, R: persian speedwell: 5 (Herbicidal rate of 90% or more (almost completely withered))
chickweed
  Herbicidal effect by foliage application, P: chickweed: 5 (Herbicidal rate of 90% or more (almost completely withered))
Chinese sprangletop
  herbicidal effect on Chinese sprangletop (D): 3 (Herbicidal rate of 40% or more and less than 70%)
Southern crabgrass
  Herbicidal effect by foliage application, F: southern crabgrass: 2 (Herbicidal rate of 20% or more and less than 40%)
oval-leafed pondweed
  Herbicidal effect, C: oval-leafed pondweed: 0 (Herbicidal rate of 5% or less (almost no effect))
Wild oat
  Herbicidal effect by foliage application, I: wild oat: 0 (Herbicidal rate of 5% or less (almost no effect))
